One data set addresses T1, hTLR9 (Homo sapiens, UniProt Q9NR96).
T1 construct: human B lymphoblasts (Daudi cells); endogenous in cells; host or cells: Daudi
The experiment in a line: TLR9 inhibition, ODN2395-induced hTNFα in Daudi. In kind it is cell-based. Here is the method: RAW 264.7 and differentiated THP-1 cells were seeded into 96-well plates at 2 × 10^4 cells per well, while Daudi cells were seeded at 5 × 10^4 cells per well. After stabilization for 30 min, cells were stimulated with specific TLR agonists for 4 or 24 h. Supernatants were diluted and transferred to precoated ELISA plates to measure TNF-α secretion using kits from Invitrogen. Optical absorbance was measured using a BioTek Synergy HTX multimode microplate reader, and data were interpolated using BioTek Gen5 software.
One-tailed paired Student’s t-tests were performed using Microsoft Excel (Microsoft). Semi-logarithmic conversions and nonregression curve analyses for calculating 50% lethal concentration (LC50) and 50% inhibitory concentration (IC50) values were conducted using GraphPad Prism 7.0 (GraphPad). The therapeutic index was calculated as […]. Animal experimental results are expressed as mean ± standard deviation and analyzed using SPSS v.20 (IBM SPSS Statistics). Homogeneity of variance was assessed using Levene’s test. […]

Data set [1] relates to IMQ-induced (TLR7) gene expression in RAW 264.7 cells. The experiment in a line: 3' mRNA sequencing of IMQ-stimulated RAW 264.7 cells. In kind it is cell-based, mouse. The settings on record: for Expression of IMQ-induced inflammation-associated genes: RAW 264.7, 2 and 4 h; for Differentially expressed genes (DEGs) / Downregulated DEGs / Upregulated DEGs: RAW 264.7, IMQ-stimulated. The procedure: RNA quality was assessed using a TapeStation 4000 system (Agilent Technologies). Libraries were prepared using a QuantSeq 3 mRNA-Seq Library Prep Kit FWD (Lexogen) and sequenced using a NextSeq 550 System (Illumina). Sequences were trimmed using BBDuk and aligned with Bowtie2, and the reads were counted using Bedtools[21]–[23]. Data were normalized using edgeR software (Ebiogen) and analyzed for gene function using the Database for Annotation, Visualization, and Integrated Discovery) and for pathway analysis using KEGG Mapper[24],[25]. RNA-seq data were deposited in the Gene Expression Omnibus database under accession number GSE255890.
Fig. 2 ETI41 and ETI60 inhibit TLR7- and TLR9-dependent downstream signaling. a, b Western blot analysis was used to quantify the protein levels of phosphorylated p-ERK, p-JNK, p38, Iκ-Bα and p65. RAW 264.7 cells were treated with 5 μM or 10 μM of ETI41 or ETI60, followed by exposure to IMQ (2 μg/ml) for 20 or 30 min (a) and ODN2395 (1 μM) for 40 or 50 min (b) respectively. β-Actin served as a loading control for the cytosol, while lamin A/C was utilized as a loading control for the nucleus. c Protein levels of IRF7 were measured after treatment with 5 μM of ETI41 or ETI60, followed by treatment with ODN2395 (1 μM) for 6 or 8 h. d BMDC cells from ex vivo were used to analyze mRNA expression levels of IL-12p40, IFN-β and CD40. Cells were pretreated with ETI41 (0.2 and 1 μM), followed by treatment with ODN2395 (1 μM) for 3 h. All experiments were independently conducted three times. Statistical differences between the induced and other cases were analyzed and verified using a one-tailed Student’s t-test (*P < 0.05, **P < 0.01, ***P < 0.001). e–g The TLR7 agonist IMQ (1 μM) was used in 3’ RNA-seq analysis to induce signaling associated with immune responses in RAW 264.7 cells. […] (e–g) depict changes in gene expression categories without pretreatment (e) after pretreatment with ETI41 (f) or after pretreatment with ETI60 (g) followed by IMQ stimulation. h Heatmaps depicting gene expression patterns within the inflammation and immune response categories (fold change >2.5, P < 0.05) of ETI41 or ETI60, dividing the time after IMQ treatment into 0, 2 and 4 h, respectively. […]

A further data set deals with T2, murine TLR9 (Mus musculus, UniProt Q9EQU3).
T2 construct: Fc; purchased R&D Systems
T2 sequence (Q9EQU3 with tags, fused parts or gaps limits assumed): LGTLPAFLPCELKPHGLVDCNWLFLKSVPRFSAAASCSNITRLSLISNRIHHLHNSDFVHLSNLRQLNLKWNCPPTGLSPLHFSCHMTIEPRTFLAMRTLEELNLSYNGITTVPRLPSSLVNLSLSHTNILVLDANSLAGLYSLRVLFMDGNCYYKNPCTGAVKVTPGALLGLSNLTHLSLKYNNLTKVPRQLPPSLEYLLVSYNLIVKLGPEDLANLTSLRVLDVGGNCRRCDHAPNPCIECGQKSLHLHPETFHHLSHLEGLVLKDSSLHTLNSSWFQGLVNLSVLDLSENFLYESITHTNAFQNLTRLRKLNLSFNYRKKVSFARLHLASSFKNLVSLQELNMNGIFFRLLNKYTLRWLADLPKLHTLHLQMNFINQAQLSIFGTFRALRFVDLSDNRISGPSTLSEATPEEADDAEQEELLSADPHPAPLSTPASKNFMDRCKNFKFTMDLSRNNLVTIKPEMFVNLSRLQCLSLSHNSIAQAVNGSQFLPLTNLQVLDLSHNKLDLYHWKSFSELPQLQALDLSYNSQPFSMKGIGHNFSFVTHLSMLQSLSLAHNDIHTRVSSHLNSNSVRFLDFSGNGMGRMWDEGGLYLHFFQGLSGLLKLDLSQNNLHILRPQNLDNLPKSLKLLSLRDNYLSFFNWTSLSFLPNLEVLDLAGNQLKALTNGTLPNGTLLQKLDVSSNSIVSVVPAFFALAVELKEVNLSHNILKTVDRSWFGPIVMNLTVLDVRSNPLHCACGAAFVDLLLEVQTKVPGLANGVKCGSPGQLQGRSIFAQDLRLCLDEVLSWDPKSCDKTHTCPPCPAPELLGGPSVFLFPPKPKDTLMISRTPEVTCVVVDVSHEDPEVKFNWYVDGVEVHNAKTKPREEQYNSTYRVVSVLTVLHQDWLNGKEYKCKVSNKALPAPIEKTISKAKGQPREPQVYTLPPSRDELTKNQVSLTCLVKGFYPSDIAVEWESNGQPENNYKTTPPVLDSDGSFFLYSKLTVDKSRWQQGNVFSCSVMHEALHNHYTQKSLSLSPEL
The experiment in a line: SPR binding to TLR9. Here is the method: Surface plasmon resonance (SPR) analysis was conducted using an SR7500DC SPR System (Reichert) with a CMDH chip for human TLR7 and murine TLR9 (R&D Systems) and a Biacore T200 platform (Cytiva) with a CM5 chip for TLR9–ODN binding. The running buffer contained 0.5% DMSO and phosphate-buffered saline, and 50 mM NaOH was used for regeneration. ETI series compounds were serially diluted from 500 μM and tested for binding affinity. Binding curves were analyzed using Scrubber2 and Biacore T200 evaluation softwares. The dissociation constants (KD) were calculated as KD = kd/ka.
SPR confirmed the binding mechanisms of ETI41 and ETI60 with TLR7 and TLR9, respectively, under three conditions: (a) early endosome (pH 7.4), (b) late endosome without CpG (pH 5.5) and (c) late endosome with CpG (pH 5.5). (a) Both ETI41 and ETI60 were measured for parameters indicating binding affinity, including the KD value presented in Table 3, and were further analyzed under conditions (b) and (c), depending on the presence or absence of ligand, to explain the binding mechanism occurring in TLR9.
(In general: In SPR one partner is held on a chip, and binding of the other changes the refractive index at the surface.)

The mark [2] stands for this setting: acidic pH 5.5 (late endosome), without or with CpG.
Setting [3] is: neutral pH 7.4 (early endosome).

Like-named read-outs stand apart in the source and are kept apart here.

By IC50 is commonly meant the concentration that gives 50% inhibition. For orientation: Kd means the constant that tells how readily two partners part at equilibrium. Low values mean higher affinity, high ones lower affinity.

T1 sequence (Q9NR96 26-1032): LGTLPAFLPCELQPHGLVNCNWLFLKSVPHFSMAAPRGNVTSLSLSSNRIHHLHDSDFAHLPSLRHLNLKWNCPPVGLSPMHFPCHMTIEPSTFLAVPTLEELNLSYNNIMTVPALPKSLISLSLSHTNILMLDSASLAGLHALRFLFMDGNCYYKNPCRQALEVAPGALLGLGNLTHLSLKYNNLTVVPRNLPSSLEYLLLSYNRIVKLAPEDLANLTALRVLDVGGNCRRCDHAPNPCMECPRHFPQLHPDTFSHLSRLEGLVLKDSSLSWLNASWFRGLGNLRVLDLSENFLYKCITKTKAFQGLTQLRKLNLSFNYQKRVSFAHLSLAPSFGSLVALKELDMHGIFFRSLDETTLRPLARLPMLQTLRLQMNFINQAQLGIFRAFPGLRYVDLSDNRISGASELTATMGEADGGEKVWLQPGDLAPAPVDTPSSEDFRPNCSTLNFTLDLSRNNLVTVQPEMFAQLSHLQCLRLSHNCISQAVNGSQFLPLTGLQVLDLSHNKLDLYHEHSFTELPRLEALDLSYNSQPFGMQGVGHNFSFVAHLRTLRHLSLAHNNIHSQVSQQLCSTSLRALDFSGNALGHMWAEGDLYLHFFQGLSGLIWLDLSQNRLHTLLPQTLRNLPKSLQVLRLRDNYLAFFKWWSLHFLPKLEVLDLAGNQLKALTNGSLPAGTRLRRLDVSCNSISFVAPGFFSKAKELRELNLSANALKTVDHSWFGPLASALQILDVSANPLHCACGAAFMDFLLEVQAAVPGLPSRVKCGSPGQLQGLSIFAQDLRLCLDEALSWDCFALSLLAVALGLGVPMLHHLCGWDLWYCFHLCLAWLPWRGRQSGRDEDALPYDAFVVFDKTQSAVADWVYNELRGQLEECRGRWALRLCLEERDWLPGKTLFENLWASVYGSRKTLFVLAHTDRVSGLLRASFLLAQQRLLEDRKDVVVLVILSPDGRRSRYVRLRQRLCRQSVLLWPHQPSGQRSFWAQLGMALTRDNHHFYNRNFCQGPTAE

For the molecule `Cc1cc2c(N)c3c(nc2n1CCCN(C)C)CCCCCC3` [ETI41], on hTLR9, the IC50 turned out to be 0.0801 µM. Besides, in data set [1], the “Expression of IMQ-induced inflammation-associated genes” value is recorded as “markedly reduced”, the “Differentially expressed genes (DEGs)” value is recorded as 509, the “Downregulated DEGs” value came out at 296 and the “Upregulated DEGs” value was 213. Moreover, the kd on murine TLR9 (Fc-TLR9, pH 7.4) is 0.191 s⁻¹. The “SPR binding to TLR9” value at murine TLR9 (setting [2]) is given as “binding was detected only in the late endosomal state where the natural ligand is present”. Also, at murine TLR9 (setting [3]), the “SPR binding to TLR9” value is given as “clear binding affinity”. In addition, on murine TLR9 (pH 7.4, read-out: ka), the kon came out at 10 M⁻¹ s⁻¹. In addition, where the note is “doses ranging from 150 to 300 mg/kg”, the Toxicity tests result is recorded as “confirmed their safety”.

On to `COc1ccc2c3c(N)c4c(nc3n(CCCN(C)C)c2c1)CCCC4` [ETI60], for which the IC50 at hTLR9 was determined as 0.0209 µM. In addition, in data set [1], the “Expression of IMQ-induced inflammation-associated genes” value was “markedly reduced”, the “Differentially expressed genes (DEGs)” value was found to be 727, the “Downregulated DEGs” value is given as 380 and the “Upregulated DEGs” value was 347. At murine TLR9 (Fc-TLR9, pH 7.4), this molecule came in with a Kd of 1500 µM and a kd of 0.106 s⁻¹. The kon at murine TLR9 (Fc-TLR9, pH 7.4, read-out: ka) turned out to be 71 M⁻¹ s⁻¹. Besides, at murine TLR9 (setting [2]), the “SPR binding to TLR9” value was “binding was detected only in the late endosomal state where the natural ligand is present”. Also, on murine TLR9 (setting [3]), the “SPR binding to TLR9” value is “clear binding affinity”. Besides, the Toxicity tests entry (in vivo) is reported as “confirmed their safety”.

Source of the values: article PMC12508057, “Discovery of ETI41 and ETI60: novel selective endosomal Toll-like receptor inhibitors for the treatment of autoimmune diseases” (Experimental & Molecular Medicine, 2025).
